Measurements: patent publication US10183021B2, “sGC stimulators” (Ironwood Pharmaceuticals, Inc., priority 2013, dated 2019)

What was measured:
[1] = target: T1, soluble guanylate cyclase (sGC) (Homo sapiens (Human), UniProt Q02108+Q02153); assay: sGC-HEK-cGMP assay with SNP incubation, LC/MS detection (Example 2A); format: cell-based; details: HEK293 cells, 10 μM SNP, LC/MS detection; for Emax: 100% = BAY 41-2272 at 10 μM, read-out: HEK assay Emax - unconstrained (%)
In short: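 HEK293 cells with endogenous sGC were pretreated 15 min at 37 °C with 0.5 mM IBMX, then exposed 10 min at 37 °C to compound (added from 0.0001–30 μM solutions) plus SNP (from 10 μM solution). After 0.1 M HCl lysis, cGMP was quantified by LC/MS against a standard curve.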

[2] = target: T1, soluble guanylate cyclase (sGC); assay: sGC-HEK-cGMP assay, new protocol with DETA-NONOate, LC/MS detection (Example 2C); format: cell-based; details: read-out: Absolute EC50 (uM) - binned
[3] = top of curve not fitted to 100%, read-out: HEK assay EC50 - unconstrained
[4] = top of curve fitted to 100%, read-out: HEK assay EC50 - constrained

T1 sequence (Q02153 whole entry): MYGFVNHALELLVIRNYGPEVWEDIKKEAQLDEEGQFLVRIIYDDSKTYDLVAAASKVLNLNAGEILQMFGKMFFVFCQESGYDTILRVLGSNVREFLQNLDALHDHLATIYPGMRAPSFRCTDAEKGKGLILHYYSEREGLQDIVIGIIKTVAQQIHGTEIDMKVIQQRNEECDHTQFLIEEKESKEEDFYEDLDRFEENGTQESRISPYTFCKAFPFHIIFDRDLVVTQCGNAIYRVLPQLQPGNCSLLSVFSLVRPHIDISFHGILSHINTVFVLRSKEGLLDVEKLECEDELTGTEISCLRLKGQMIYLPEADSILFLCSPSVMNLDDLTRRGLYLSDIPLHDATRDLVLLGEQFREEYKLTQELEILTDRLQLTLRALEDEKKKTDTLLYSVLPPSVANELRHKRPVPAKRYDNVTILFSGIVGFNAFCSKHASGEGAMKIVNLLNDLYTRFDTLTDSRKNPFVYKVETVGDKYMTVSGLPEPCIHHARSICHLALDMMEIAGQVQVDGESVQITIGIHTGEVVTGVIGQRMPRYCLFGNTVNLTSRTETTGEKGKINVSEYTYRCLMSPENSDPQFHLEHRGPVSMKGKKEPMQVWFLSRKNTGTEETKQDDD
T1 sequence (Q02108 whole entry): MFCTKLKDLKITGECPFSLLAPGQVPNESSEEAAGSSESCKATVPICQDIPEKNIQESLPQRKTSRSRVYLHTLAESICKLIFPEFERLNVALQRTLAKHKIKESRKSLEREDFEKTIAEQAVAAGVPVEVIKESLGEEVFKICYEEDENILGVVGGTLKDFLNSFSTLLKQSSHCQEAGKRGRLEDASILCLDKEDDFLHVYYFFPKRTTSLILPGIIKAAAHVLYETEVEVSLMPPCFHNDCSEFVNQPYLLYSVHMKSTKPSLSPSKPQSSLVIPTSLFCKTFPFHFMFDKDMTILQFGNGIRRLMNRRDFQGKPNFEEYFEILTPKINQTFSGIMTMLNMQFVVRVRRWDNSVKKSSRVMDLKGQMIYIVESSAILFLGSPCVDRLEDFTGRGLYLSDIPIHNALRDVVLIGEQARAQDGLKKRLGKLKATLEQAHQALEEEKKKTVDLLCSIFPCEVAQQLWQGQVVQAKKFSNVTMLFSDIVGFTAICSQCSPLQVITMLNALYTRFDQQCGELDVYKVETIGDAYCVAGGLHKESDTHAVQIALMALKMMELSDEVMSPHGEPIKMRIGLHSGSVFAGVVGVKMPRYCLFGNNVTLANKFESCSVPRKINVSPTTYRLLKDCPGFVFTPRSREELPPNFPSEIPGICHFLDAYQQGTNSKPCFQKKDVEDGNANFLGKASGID

| Structure (SMILES) | Emax [1] [%] | EC50 [1, 3] [µM] | EC50 [2] [µM] | EC50 [1, 4] [µM] |
| --- | --- | --- | --- | --- |
| O=C(O)[C@H]1C[C@@H](C(F)(F)F)CCN1c1nc(-c2cc(-c3ccon3)n(Cc3ccccc3F)n2)ncc1F (racemic) [Compound I-452] | 80 to 100 | 0.1 to 0.5 | < 0.1 | – |
| O=C(O)[C@H]1C[C@H](C(F)(F)F)CCN1c1nc(-c2cc(-c3ccon3)n(Cc3ccccc3F)n2)ncc1F (racemic) [Compound I-453] | 0 to 10 | 1 to 5 | 0.101 to 1 | – |
| CC1CCCN1c1nc(-c2cc(-c3ccon3)n(Cc3ccccc3F)n2)ncc1F (stereo not shown) [Compound I-11] | – | – | 0.101 to 1 | 0.5 to 1 |
| O=[N+]([O-])c1cnc(-c2cc(-c3ccon3)n(Cc3ccccc3F)n2)nc1N1CCOCC1 [Compound I-14] | – | – | > 1 | > 10 |
| COC1CCCN(c2nc(-c3cc(-c4ccon4)n(Cc4ccccc4F)n3)ncc2F)C1 (stereo not shown) [Compound I-19] | – | – | < 0.1 | 1 to 5 |
| Fc1ccccc1Cn1nc(-c2nccc(N3CCOCC3)n2)cc1-c1ccon1 [Compound I-24] | 40 to 60 | 0.1 to 0.5 | < 0.1 | – |
| CC(C)(C)OC(=O)NC1CCN(c2nc(-c3cc(-c4ccon4)n(Cc4ccccc4F)n3)ncc2F)C1 (stereo not shown) [Compound I-35] | 40 to 60 | 0.5 to 1 | 0.101 to 1 | – |
| Fc1ccccc1Cn1nc(-c2ncc(F)c(NC3CCCNC3)n2)cc1-c1ccon1 (stereo not shown) [Compound I-39] | 60 to 80 | 5 to 10 | 0.101 to 1 | – |
| O=C(O)C1CN(c2nc(-c3cc(-c4ccon4)n(Cc4ccccc4F)n3)ncc2F)C1 [Compound I-53] | – | – | 0.101 to 1 | 1 to 5 |
| CC1C(=O)NCCN1c1nc(-c2cc(-c3ccon3)n(Cc3ccccc3F)n2)ncc1F (stereo not shown) [Compound I-54] | – | – | < 0.1 | 0.1 to 0.5 |
| O=C(O)C1CCN1c1nc(-c2cc(-c3ccon3)n(Cc3ccccc3F)n2)ncc1F (stereo not shown) [Compound I-55] | – | – | 0.101 to 1 | 1 to 5 |
| O=C1CN(c2nc(-c3cc(-c4ccon4)n(Cc4ccccc4F)n3)ncc2F)CCN1 [Compound I-59] | – | – | 0.101 to 1 | > 10 |
| CC(C)[C@H](Nc1nc(-c2cc(-c3ccon3)n(Cc3ccccc3F)n2)ncc1F)C(=O)O [Compound I-69, (S)-2-((5-fluoro-2-(1-(2-fluorobenzyl)-5-(isoxazol-3-yl)-1H-pyrazol-3-yl)pyrimidin-4-yl)amino)-3-methylbutanoic acid] | 80 to 100 | 0.5 to 1 | 0.101 to 1 | 0.1 to 0.5 |
| O=C(O)[C@H](Cc1cc2ccccc2[nH]1)Nc1nc(-c2cc(-c3ccon3)n(Cc3ccccc3F)n2)ncc1F [Compound I-81] | – | – | > 1 | > 10 |
| O=C(O)C1(Nc2nc(-c3cc(-c4ccon4)n(Cc4ccccc4F)n3)ncc2F)CC1 [Compound I-85] | – | – | > 1 | > 10 |
| CC(C)C[C@H](Nc1nc(-c2cc(-c3ccon3)n(Cc3ccccc3F)n2)ncc1F)C(=O)O [Compound I-88] | 60 to 80 | 1 to 5 | 0.101 to 1 | – |
| O=C(O)[C@@H]1Cc2ccccc2N1c1nc(-c2cc(-c3ccon3)n(Cc3ccccc3F)n2)ncc1F [Compound I-90] | 40 to 60 | 5 to 10 | > 1 | – |
| CC(C)(C)OC(=O)N1CCN(c2nc(-c3cc(-c4ccon4)n(Cc4ccccc4F)n3)ncc2F)C(C(=O)O)C1 (stereo not shown) [Compound I-101] | – | – | 0.101 to 1 | 5 to 10 |
| O=C(O)c1cccn1-c1nc(-c2cc(-c3ccon3)n(Cc3ccccc3F)n2)ncc1F [Compound I-104] | 20 to 40 | 1 to 5 | > 1 | – |
| O=C(O)[C@@H](Cc1cc2ccccc2[nH]1)Nc1nc(-c2cc(-c3ccon3)n(Cc3ccccc3F)n2)ncc1F [Compound I-108] | – | – | 0.101 to 1 | 5 to 10 |

| Structure (SMILES) | Emax [1] [%] | EC50 [1, 3] [µM] | EC50 [2] [µM] | EC50 [1, 4] [µM] |
| --- | --- | --- | --- | --- |
| Fc1ccccc1Cn1nc(-c2ncc(F)c(N3CCc4ccccc4C3)n2)cc1-c1ccon1 [Compound I-111] | – | – | < 0.1 | > 10 |
| O=C(O)[C@@]1(Nc2nc(-c3cc(-c4ccon4)n(Cc4ccccc4F)n3)ncc2F)CC2CC[C@H]1C2 [Compound I-114] | 40 to 60 | 1 to 5 | > 1 | – |
| COc1ccc2c(c1)CCN(c1nc(-c3cc(-c4ccon4)n(Cc4ccccc4F)n3)ncc1F)C2C(=O)O (stereo not shown) [Compound I-126] | – | – | < 0.1 | 0.5 to 1 |
| O=C(O)C1c2ccc(O)cc2CCN1c1nc(-c2cc(-c3ccon3)n(Cc3ccccc3F)n2)ncc1F (stereo not shown) [Compound I-127] | – | – | > 1 | > 10 |
| O=C(O)C1(CNc2nc(-c3cc(-c4ccon4)n(Cc4ccccc4F)n3)ncc2F)CCCC1 [Compound I-129] | – | – | < 0.1 | 0.1 to 0.5 |
| O=C(O)C1CNCCN1c1nc(-c2cc(-c3ccon3)n(Cc3ccccc3F)n2)ncc1F (stereo not shown) [Compound I-133] | – | – | > 1 | > 10 |
| COC(=O)N1CCN(c2nc(-c3cc(-c4ccon4)n(Cc4ccccc4F)n3)ncc2F)C(C(=O)O)C1 (stereo not shown) [Compound I-135] | – | – | > 1 | > 10 |
| O=C(O)C1(Nc2nc(-c3cc(-c4ccon4)n(Cc4ccccc4F)n3)ncc2F)CCCC1 [Compound I-138] | – | – | > 1 | 1 to 5 |
| O=C(O)C1CCc2ccccc2N1c1nc(-c2cc(-c3ccon3)n(Cc3ccccc3F)n2)ncc1F (stereo not shown) [Compound I-140] | 80 to 100 | 1 to 5 | 0.101 to 1 | – |
| O=C(O)C1c2ccccc2CN1c1nc(-c2cc(-c3ccon3)n(Cc3ccccc3F)n2)ncc1F (stereo not shown) [Compound I-149] | – | – | > 1 | > 10 |
| O=C(O)[C@H](Cc1ccc(O)cc1)Nc1nc(-c2cc(-c3ccon3)n(Cc3ccccc3F)n2)ncc1F [Compound I-159] | – | – | > 1 | > 10 |
| O=C(O)C1c2[nH]cnc2CCN1c1nc(-c2cc(-c3ccon3)n(Cc3ccccc3F)n2)ncc1F (stereo not shown) [Compound I-163] | – | – | > 1 | > 10 |
| O=C(O)C1(F)CCN(c2nc(-c3cc(-c4ccon4)n(Cc4ccccc4F)n3)ncc2F)CC1 [Compound I-188] | – | – | 0.101 to 1 | 1 to 5 |
| CN(Cc1nn[nH]n1)c1nc(-c2cc(-c3ccon3)n(Cc3ccccc3F)n2)ncc1F [Compound I-191] | – | – | < 0.1 | > 10 |
| CS(=O)(=O)C1CCN(c2nc(C3=NC(Cc4ccccc4F)C(c4ccon4)=C3)ncc2F)C1 (stereo not shown) [Compound I-192] | > 120 | 0.001 to 0.1 | < 0.1 | – |
| O=C1CCS(=O)(=O)N1c1nc(-c2cc(-c3ccon3)n(Cc3ccccc3F)n2)ncc1F [Compound I-612] | – | – | < 0.1 | – |
| O=S(=O)(Nc1nc(-c2cc(-c3ccon3)n(Cc3ccccc3F)n2)ncc1F)c1ccccc1 [Compound I-613] | – | – | 0.101 to 1 | – |
| COc1ccc(S(=O)(=O)Nc2nc(-c3cc(-c4ccon4)n(Cc4ccccc4F)n3)ncc2F)cc1OC [Compound I-614] | – | – | 0.101 to 1 | – |
| O=C1C(O)CCN1c1nc(-c2cc(-c3ccon3)n(Cc3ccccc3F)n2)ncc1F (stereo not shown) [Compound I-615] | – | – | > 1 | – |
| CS(=O)(=O)CC(=O)Nc1nc(-c2cc(-c3ccon3)n(Cc3ccccc3F)n2)ncc1F [Compound I-616] | – | – | 0.101 to 1 | – |

| Structure (SMILES) | Emax [1] [%] | EC50 [1, 3] [µM] | EC50 [2] [µM] | EC50 [1, 4] [µM] |
| --- | --- | --- | --- | --- |
| CCOC(=O)C1(C)C(=O)Nc2cnc(-c3cc(-c4ccon4)n(Cc4ccccc4F)n3)nc21 (stereo not shown) [Compound I-617] | – | – | > 1 | – |
| CCOC(=O)C1(C)C(=O)Nc2nc(-c3cc(-c4ccon4)n(CCC(F)(F)F)n3)nc(N)c21 (stereo not shown) [Compound I-618] | – | – | > 1 | – |
| CC1(C(N)=O)C(=O)Nc2nc(-c3cc(-c4ccon4)n(CCC(F)(F)F)n3)nc(N)c21 (stereo not shown) [Compound I-619] | – | – | > 1 | – |
| COC(=O)Nc1c(N)nc(-c2cc(-c3ccon3)n(Cc3ccccc3F)n2)nc1N [Compound I-620] | – | – | > 1 | – |
| COC(=O)N(C)c1c(N)nc(-c2cc(-c3ccon3)n(Cc3ccccc3F)n2)nc1N [Compound I-621] | – | – | > 1 | – |
| C[C@@H](Nc1nc(-c2cc(-c3ccon3)n(Cc3ccccc3F)n2)ncc1F)c1nnc(C(F)(F)F)o1 [Compound I-622] | – | – | < 0.1 | – |
| CC(=O)NNC(=O)C1(C)C(=O)Nc2nc(-c3cc(-c4ccon4)n(Cc4ccccc4F)n3)nc(N)c21 (stereo not shown) [Compound I-623] | – | – | > 1 | – |
| O=S(=O)(Nc1nc(-c2cc(-c3ccon3)n(Cc3ccccc3F)n2)ncc1F)c1ccc(F)cc1 [Compound I-624] | – | – | 0.101 to 1 | – |
| O=S(=O)(Nc1nc(-c2cc(-c3ccon3)n(Cc3ccccc3F)n2)ncc1F)c1cccnc1 [Compound I-625] | – | – | > 1 | – |
| CS(=O)(=O)CCC(Nc1nc(-c2cc(-c3ccon3)n(CCC(F)(F)F)n2)ncc1F)C(F)(F)F (stereo not shown) [Compound I-626] | – | – | > 1 | – |
| NC(=O)C(O)(CNc1ccnc(-c2cc(-c3ccon3)n(Cc3ccccc3F)n2)n1)C(F)(F)F (stereo not shown) [Compound I-627] | – | – | 0.101 to 1 | – |
| O=S1(=O)Cc2nc(-c3cc(-c4ccon4)n(Cc4ccccc4F)n3)nc(O)c2C1 [Compound I-628] | – | – | > 1 | – |
| CN(c1nc(-c2cc(-c3ccon3)n(Cc3ccccc3F)n2)ncc1F)S(C)(=O)=O [Compound I-629] | – | – | > 1 | – |
| COC(=O)N(C)c1cnc(-c2cc(-c3ccon3)n(Cc3ccccc3F)n2)nc1 [Compound I-630] | – | – | > 1 | – |
| Oc1n[nH]c2c1CN(c1nc(-c3cc(-c4ccon4)n(Cc4ccccc4F)n3)ncc1F)CC2 [Compound I-631] | – | – | < 0.1 | – |
| Nc1nc(-c2cc(-c3ccon3)n(Cc3ccccc3F)n2)nc2c1CS(=O)(=O)C2 [Compound I-632] | – | – | > 1 | – |
| OCC1Cn2c(nnc2C(F)(F)F)CN1c1nc(-c2cc(-c3ccon3)n(Cc3ccccc3F)n2)ncc1F (stereo not shown) [Compound I-633] | – | – | < 0.1 | – |
| CC(O)(CNc1nc(-c2cc(-c3ccon3)n(Cc3ccccc3F)n2)ncc1F)C(F)(F)F (stereo not shown) [Compound I-634] | – | – | < 0.1 | – |
